Source: the NIST ThermoML archive (doi:10.1016/j.jct.2018.07.029)
“And” between values parts separate entries of the source, which are not always exact repeats. Identical values can stand only once.

Settings: Liquid, Transpiration method

CCCCOC(=O)C(C)O (stereo not given) [butyl 2-hydroxypropanoate]
Settings	vapor or sublimation pressure [kPa]
273.6 K	0.00576
274.1 K	0.00627
276.6 K	0.00823
277.2 K	0.00868
279.2 K	0.00996
280.7 K	0.0112
281.8 K	0.0133
283.2 K	0.0141
285.4 K	0.0178
287.3 K	0.0215
290.3 K	0.0272
291.8 K	0.0324
293.3 K	0.0375
296.2 K	0.0442
299.2 K	0.0601
302.2 K	0.0712
305.1 K	0.0952
308.1 K	0.1148
308.5 K	0.1253
311 K	0.1483
313 K	0.1639
314.5 K	0.1944
317 K	0.2271
318.9 K	0.2521
322.9 K	0.3526

CCOC(=O)[C@@H](C)O [ethyl D-lactate]
Settings	vapor or sublimation pressure
274.4 K	0.0419 kPa
276.4 K	0.0495 kPa
278.2 K	0.0568 kPa
280.3 K	0.0665 kPa
282.3 K	0.0765 kPa
283.2 K	0.0834 kPa
285.4 K	0.0995 kPa
286.2 K	0.1081 kPa
289.2 K	0.1358 kPa
291.3 K	0.1583 kPa
293.2 K	0.1868 kPa
295.2 K	0.2114 kPa
297.3 K	0.2551 kPa
298.4 K	0.2762 kPa and 0.2718 kPa
299.2 K	0.2886 kPa
301.3 K	0.3466 kPa
303.2 K	0.3937 kPa
305.2 K	0.4603 kPa
306.2 K	0.479 kPa
307.3 K	0.5225 kPa
308.2 K	0.5581 kPa
308.3 K	0.5768 kPa
310.3 K	0.6462 kPa
311.3 K	0.7011 kPa
313.2 K	0.7624 kPa
314.2 K	0.8127 kPa
316.3 K	0.9517 kPa
318.2 K	1.048 kPa

CCCOC(=O)C(C)O (stereo not given) [propyl 2-hydroxypropanoate]
Settings	vapor or sublimation pressure
273.5 K	0.0152 kPa
274.6 K	0.0171 kPa
276.2 K	0.019 kPa
277.7 K	0.0222 kPa
279.9 K	0.0274 kPa
282.1 K	0.0332 kPa
283.3 K	0.0359 kPa
286.2 K	0.0489 kPa and 0.048 kPa
287.8 K	0.055 kPa
290.3 K	0.0664 kPa
292.3 K	0.0793 kPa
294.3 K	0.09 kPa
298.2 K	0.1194 kPa
299.2 K	0.1376 kPa and 0.1392 kPa
301.2 K	0.1565 kPa
301.4 K	0.1625 kPa
303.3 K	0.1866 kPa
304.2 K	0.1915 kPa
305.3 K	0.2068 kPa
307.9 K	0.268 kPa
308.1 K	0.256 kPa
310.3 K	0.3053 kPa
312.1 K	0.3377 kPa
313.4 K	0.3713 kPa
313.6 K	0.3614 kPa
315.4 K	0.4264 kPa
316 K	0.4342 kPa
317 K	0.4541 kPa
317.4 K	0.4789 kPa
319.4 K	0.5467 kPa
320 K	0.5661 kPa
321.4 K	0.6113 kPa
323 K	0.6633 kPa
323.4 K	0.7043 kPa
325.4 K	0.8342 kPa
327.3 K	0.9235 kPa
330.3 K	1.079 kPa

CCCCCOC(=O)C(C)O (stereo not given) [pentyl 2-hydroxypropanoate]
Settings	vapor or sublimation pressure [kPa]
303.4 K	0.026
305.3 K	0.0299
307.3 K	0.038
309.3 K	0.0421
311.4 K	0.0517
313.3 K	0.0565
315.4 K	0.0714
317.4 K	0.0833
319.4 K	0.0946
321.4 K	0.1069
323.4 K	0.1269
325.4 K	0.1418
327.4 K	0.1665
329.4 K	0.1855
331.3 K	0.2174
333.3 K	0.2476
335.3 K	0.2794
337.3 K	0.3145
339.3 K	0.3534
341.3 K	0.4164
343.2 K	0.4684

CCOC(=O)C(C)O (racemic) [DL-ethyl lactate]
Settings	vapor or sublimation pressure
274.6 K	0.0432 kPa
276.6 K	0.0506 kPa
279.6 K	0.0659 kPa
281.4 K	0.0743 kPa
283.6 K	0.0901 kPa
284.6 K	0.095 kPa
285.8 K	0.1032 kPa
287.6 K	0.1266 kPa and 0.1265 kPa
288.4 K	0.1302 kPa
290.2 K	0.1492 kPa
290.3 K	0.1456 kPa
291.1 K	0.162 kPa
293.5 K	0.1923 kPa
296.4 K	0.2396 kPa
298.5 K	0.2828 kPa
301.5 K	0.3655 kPa
302.5 K	0.3751 kPa
304.5 K	0.4491 kPa
305.3 K	0.4793 kPa
307.2 K	0.5251 kPa
308.2 K	0.5766 kPa
310.1 K	0.6332 kPa and 0.6327 kPa
311.3 K	0.6892 kPa

CC(C)OC(=O)[C@H](C)O [isopropyl (S)-2-hydroxypropionate]
Settings	vapor or sublimation pressure [kPa]
283.4 K	0.0862
288.3 K	0.1239
293.3 K	0.1774
298.3 K	0.2401
303.2 K	0.3239
306.8 K	0.4055
